From ChEMBL document CHEMBL1122448, “New carboxyalkyl inhibitors of brain enkephalinase: synthesis, biological activity, and analgesic properties” (J Med Chem, 1983)
Where a SMILES comes first, the peptide text is derived from it.

Legend:
Neprilysin = target: T1, Neprilysin (Mus musculus, UniProt Q61391)
T1 sequence (Q61391 whole entry): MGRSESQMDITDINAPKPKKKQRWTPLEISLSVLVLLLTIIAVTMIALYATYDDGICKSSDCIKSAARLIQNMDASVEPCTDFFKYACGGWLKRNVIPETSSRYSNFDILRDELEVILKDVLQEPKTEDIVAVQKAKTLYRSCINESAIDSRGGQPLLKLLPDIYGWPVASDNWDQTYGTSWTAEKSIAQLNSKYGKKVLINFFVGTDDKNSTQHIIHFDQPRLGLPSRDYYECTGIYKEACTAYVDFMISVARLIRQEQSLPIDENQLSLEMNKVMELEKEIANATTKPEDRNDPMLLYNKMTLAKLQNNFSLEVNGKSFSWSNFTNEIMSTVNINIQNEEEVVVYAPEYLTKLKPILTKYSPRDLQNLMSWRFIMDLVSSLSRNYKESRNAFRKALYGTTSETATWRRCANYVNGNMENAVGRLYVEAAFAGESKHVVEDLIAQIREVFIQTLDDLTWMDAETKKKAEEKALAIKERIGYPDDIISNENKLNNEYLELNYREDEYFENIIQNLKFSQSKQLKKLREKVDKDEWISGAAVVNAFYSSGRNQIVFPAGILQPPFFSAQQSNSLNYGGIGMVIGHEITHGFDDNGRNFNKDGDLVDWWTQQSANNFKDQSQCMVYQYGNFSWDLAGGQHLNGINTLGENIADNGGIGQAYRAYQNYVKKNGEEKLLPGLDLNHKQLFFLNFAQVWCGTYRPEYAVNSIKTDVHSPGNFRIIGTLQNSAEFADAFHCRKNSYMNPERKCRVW
Description: 50% Inhibitory potency against enkephalinase from mouse striatum.

Mus musculus = experiment: Number of writhings 10 min after intracerebroventricular administration of 10 microg 3 and ip administration of naloxone (10 min before compound is administered).; format: functional
[1] = target: T2, Angiotensin-converting enzyme (Mus musculus, UniProt P09470); experiment: 50% Inhibitory potency against angiotensin I converting enzyme from mouse striatum.
T2 sequence (P09470 whole entry): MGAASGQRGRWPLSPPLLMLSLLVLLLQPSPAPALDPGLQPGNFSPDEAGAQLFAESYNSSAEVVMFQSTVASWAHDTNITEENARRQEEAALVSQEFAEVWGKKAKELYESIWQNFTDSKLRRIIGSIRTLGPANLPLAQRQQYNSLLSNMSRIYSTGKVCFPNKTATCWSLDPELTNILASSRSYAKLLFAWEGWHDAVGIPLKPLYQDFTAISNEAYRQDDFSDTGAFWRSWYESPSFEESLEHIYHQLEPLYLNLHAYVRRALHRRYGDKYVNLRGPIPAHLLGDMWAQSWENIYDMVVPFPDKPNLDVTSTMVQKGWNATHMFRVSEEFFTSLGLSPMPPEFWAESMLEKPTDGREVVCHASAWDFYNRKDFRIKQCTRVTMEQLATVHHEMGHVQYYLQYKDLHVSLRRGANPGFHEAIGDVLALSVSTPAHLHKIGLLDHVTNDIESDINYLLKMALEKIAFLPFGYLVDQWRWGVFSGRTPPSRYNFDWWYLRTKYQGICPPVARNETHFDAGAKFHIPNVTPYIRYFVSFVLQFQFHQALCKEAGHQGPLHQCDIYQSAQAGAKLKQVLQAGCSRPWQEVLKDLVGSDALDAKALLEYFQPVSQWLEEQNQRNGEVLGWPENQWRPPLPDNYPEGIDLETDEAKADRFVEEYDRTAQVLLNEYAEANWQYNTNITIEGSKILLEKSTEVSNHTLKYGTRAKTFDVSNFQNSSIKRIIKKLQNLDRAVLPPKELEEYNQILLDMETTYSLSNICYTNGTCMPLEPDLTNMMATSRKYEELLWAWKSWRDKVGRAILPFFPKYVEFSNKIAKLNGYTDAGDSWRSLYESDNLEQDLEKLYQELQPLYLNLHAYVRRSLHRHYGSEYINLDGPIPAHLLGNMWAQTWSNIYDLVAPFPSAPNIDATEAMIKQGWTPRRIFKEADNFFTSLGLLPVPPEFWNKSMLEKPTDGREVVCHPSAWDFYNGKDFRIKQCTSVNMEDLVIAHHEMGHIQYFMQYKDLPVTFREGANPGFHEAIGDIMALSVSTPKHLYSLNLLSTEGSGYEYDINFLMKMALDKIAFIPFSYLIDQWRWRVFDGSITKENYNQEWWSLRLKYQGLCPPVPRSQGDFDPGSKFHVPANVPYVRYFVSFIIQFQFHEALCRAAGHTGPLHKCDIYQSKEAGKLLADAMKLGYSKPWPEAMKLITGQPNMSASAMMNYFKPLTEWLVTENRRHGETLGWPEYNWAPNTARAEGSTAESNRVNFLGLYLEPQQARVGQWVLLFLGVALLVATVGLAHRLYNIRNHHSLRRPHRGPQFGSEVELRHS

[2] = target: T2, Angiotensin-converting enzyme
Description: 50% Inhibitory potency against Angiotensin I converting enzyme from mouse striatum.

| Structure (SMILES) | IC50 (Neprilysin) [µM] | Writhing number (Mus musculus) | IC50 [1] [µM] | IC50 [2] [µM] |
| --- | --- | --- | --- | --- |
| CC(C)C[C@H](NC(=O)[C@@H](Cc1ccccc1)NCC(=O)O)C(=O)O | > 100 | – | – | – |
| C=CCN1CC[C@]23c4c5ccc(O)c4O[C@H]2C(=O)CC[C@@]3(O)[C@H]1C5.CC(C)CC(NC(=O)C(Cc1ccccc1)C(=O)O)C(=O)O | – | 29.7 | – | – |
| CC(C)CC(NC(=O)C(CC(=O)O)Cc1ccccc1)C(=O)O (stereo not drawn) | 0.8 | – | 20 | – |
| CC(C)CC(NC(=O)[C@H](Cc1ccccc1)NCC(=O)O)C(=O)O (single isomer, unassigned) | 11 | – | – | – |
| CC(C)CC(NC(=O)C(Cc1ccccc1)C(=O)O)C(=O)O (stereo not drawn) | 0.7 | 29.7 | – | > 1000 |
| CC(C)CC(NC(=O)C(Cc1ccccc1)NCCC(=O)O)C(=O)O (stereo not drawn) | 11 | – | > 100 | – |
| C[C@H](NC(=O)[C@H](Cc1ccccc1)NCC(=O)O)C(=O)O | 0.5 | – | 4 | – |
| C=CCN1CC[C@]23c4c5ccc(O)c4O[C@H]2C(=O)CC[C@@]3(O)[C@H]1C5 [NALOXONE] | – | 31.2 | – | – |
| CC(C)C[C@@H](NC(=O)[C@@H](Cc1ccccc1)NCC(=O)O)C(=O)O | 18 | – | – | – |
| CC(C)C[C@H](NC(=O)[C@H](Cc1ccccc1)NCC(=O)O)C(=O)O | 2 | – | 2 | – |
| CC(C)C[C@H](NC(=O)[C@@H](N)Cc1ccccc1)C(=O)O (H-Phe-Leu-OH) | 20 | – | – | 700 |
